Target: T1, catechol-O-methyltransferase (COMT) (Homo sapiens, UniProt P21964)
T1 construct: M51A variant) was expressed in HEK 293F cells
T1 sequence (P21964 52-271 limits assumed): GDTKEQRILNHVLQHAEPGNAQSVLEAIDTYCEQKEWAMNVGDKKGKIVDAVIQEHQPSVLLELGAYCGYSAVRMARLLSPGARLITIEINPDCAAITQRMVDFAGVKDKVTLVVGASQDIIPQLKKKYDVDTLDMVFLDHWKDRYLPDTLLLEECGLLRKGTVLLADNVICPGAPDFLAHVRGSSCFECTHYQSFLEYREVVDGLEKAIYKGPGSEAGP
Test: COMT inhibition assay (HTRF, production of SAH from SAM)
Format: biochemical
Details: table does not say MB-COMT or S-COMT
Method in brief: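 Membranes from HEK293F cells expressing MB-COMT (M51A variant) incubated with 20 μM SAM and 1.5 μM dopamine plus compound (10 concentrations) for 40 min at 37 °C; S-COMT (Val158) at 0.15 ng/well used 100 μM dopamine, 15 min. SAH measured by HTRF against a standard curve; pIC50 from 4-parameter logistic fit.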

Row | SMILES | Activity range (pIC50)
1 | CC(c1ccc(F)cc1)N1CCn2cc(O)c(=O)cc2C1 (stereo not drawn) [Example 99, 2-[1-(4-fluorophenyl)ethyl]-7-hydroxy-1,2,3,4-tetrahydro-8H-pyrido[1,2-a]pyrazin-8-one] | ++ (two plus signs (++) is associated with a pIC50 of from about 6 to 7)
2 | O=c1cc2n(cc1O)CCN(C(CO)c1ccccc1)C2 (stereo not drawn) [Example 100, 7-hydroxy-2-(2-hydroxy-1-phenylethyl)-1,2,3,4-tetrahydro-8H-pyrido[1,2-a]pyrazin-8-one] | + (a single plus (+) is associated with a pIC50 of from about 4.5 to 6)
3 | O=c1cc2n(cc1O)CCN(C(c1ccccc1)C(F)(F)F)C2 (stereo not drawn) [Example 101, 7-hydroxy-2-(2,2,2-trifluoro-1-phenylethyl)-1,2,3,4-tetrahydro-8H-pyrido[1,2-a]pyrazin-8-one] | +++ (three plus signs (+++) is associated with a pIC50 of above about 7)
4 | O=c1cc2n(cc1O)CCN(Cc1csc(-c3ccccc3)n1)C2 [Example 102, 7-hydroxy-2-[(2-phenyl-1,3-thiazol-4-yl)methyl]-1,2,3,4-tetrahydro-8H-pyrido[1,2-a]pyrazin-8-one] | ++ (two plus signs (++) is associated with a pIC50 of from about 6 to 7)
5 | Cc1nn(-c2ccccc2)c(C)c1CN1CCn2cc(O)c(=O)cc2C1 [Example 103, 2-[(3,5-dimethyl-1-phenyl-1H-pyrazol-4-yl)methyl]-7-hydroxy-1,2,3,4-tetrahydro-8H-pyrido[1,2-a]pyrazin-8-one] | ++ (two plus signs (++) is associated with a pIC50 of from about 6 to 7)
6 | O=c1cc2n(cc1O)CCN(C1(c3ccccc3)CC1)C2 [Example 104, 7-hydroxy-2-(1-phenylcyclopropyl)-3,4-dihydro-1H-pyrido[1,2-a]pyrazin-8-one] | +++ (three plus signs (+++) is associated with a pIC50 of above about 7)
7 | O=c1cc2n(cc1O)CCN(C(CF)c1ccccc1)C2 (stereo not drawn) [Example 105, 2-(2-fluoro-1-phenyl-ethyl)-7-hydroxy-3,4-dihydro-1H-pyrido[1,2-a]pyrazin-8-one] | +++ (three plus signs (+++) is associated with a pIC50 of above about 7)
8 | O=c1cc2n(cc1O)CCN(C1(c3ccccc3Cl)CC1)C2 [Example 106, 2-[1-(2-chlorophenyl)cyclopropyl]-7-hydroxy-3,4-dihydro-1H-pyrido[1,2-a]pyrazin-8-one] | +++ (three plus signs (+++) is associated with a pIC50 of above about 7)
9 | O=c1cc2n(cc1O)CCN(C(c1ccccc1)C(F)F)C2 (stereo not drawn) [Example 107, 2-(2,2-difluoro-1-phenyl-ethyl)-7-hydroxy-3,4-dihydro-1H-pyrido[1,2-a]pyrazin-8-one] | +++ (three plus signs (+++) is associated with a pIC50 of above about 7)
10 | O=c1cc2n(cc1O)CCN(c1nc3ccccc3s1)C2 [Example 108, 2-(1,3-benzothiazol-2-yl)-7-hydroxy-3,4-dihydro-1H-pyrido[1,2-a]pyrazin-8-one] | ++ (two plus signs (++) is associated with a pIC50 of from about 6 to 7)
11 | O=c1cc2n(cc1O)CCN(C1CC1c1ccccc1)C2 (stereo not drawn) [Example 109, 7-hydroxy-2-(2-phenylcyclopropyl)-3,4-dihydro-1H-pyrido[1,2-a]pyrazin-8-one] | ++ (two plus signs (++) is associated with a pIC50 of from about 6 to 7)
12 | O=c1cc2n(cc1O)CCN(c1cccc3ncccc13)C2 [Example 110, 7-hydroxy-2-(5-quinolyl)-3,4-dihydro-1H-pyrido[1,2-a]pyrazin-8-one] | + (a single plus (+) is associated with a pIC50 of from about 4.5 to 6)
13 | O=c1cc2n(cc1O)CCN(C1(c3ccccc3)COC1)C2 [Example 111, 7-hydroxy-2-(3-phenyloxetan-3-yl)-3,4-dihydro-1H-pyrido[1,2-a]pyrazin-8-one] | ++ (two plus signs (++) is associated with a pIC50 of from about 6 to 7)
14 | O=c1cc2n(cc1O)CCN(c1ccccc1)C2 [Example 112, 7-hydroxy-2-phenyl-1,2,3,4-tetrahydro-8H-pyrido[1,2-a]pyrazin-8-one] | +++ (three plus signs (+++) is associated with a pIC50 of above about 7)
15 | Cc1cccc(N2CCn3cc(O)c(=O)cc3C2)c1 [Example 113, 7-hydroxy-2-(3-methylphenyl)-1,2,3,4-tetrahydro-8H-pyrido[1,2-a]pyrazin-8-one] | ++ (two plus signs (++) is associated with a pIC50 of from about 6 to 7)
16 | O=c1cc2n(cc1O)CCN(c1ccccc1OC(F)(F)F)C2 [Example 114, 7-hydroxy-2-[2-(trifluoromethoxy)phenyl]-1,2,3,4-tetrahydro-8H-pyrido[1,2-a]pyrazin-8-one] | ++ (two plus signs (++) is associated with a pIC50 of from about 6 to 7)
17 | O=c1cc2n(cc1O)CCN(Cc1ccccc1)C2Cc1ccccc1 (stereo not drawn) [Example 115, 1,2-dibenzyl-7-hydroxy-1,2,3,4-tetrahydro-8H-pyrido[1,2-a]pyrazin-8-one] | ++ (two plus signs (++) is associated with a pIC50 of from about 6 to 7)
18 | O=c1cc2n(cc1O)CCN(Cc1ccccc1)C2c1ccccc1 (stereo not drawn) [Example 116, 2-benzyl-7-hydroxy-1-phenyl-1,2,3,4-tetrahydro-8H-pyrido[1,2-a]pyrazin-8-one] | +++ (three plus signs (+++) is associated with a pIC50 of above about 7)
19 | O=c1cc2n(cc1O)CCN(Cc1c(Cl)cccc1Cl)C2c1ccccc1 (stereo not drawn) [Example 117, 2-(2,6-dichlorobenzyl)-7-hydroxy-1-phenyl-1,2,3,4-tetrahydro-8H-pyrido[1,2-a]pyrazin-8-one] | +++ (three plus signs (+++) is associated with a pIC50 of above about 7)
20 | CCc1ccc(CN2CCn3cc(O)c(=O)cc3C2C(C)C)cc1 (stereo not drawn) [Example 120, 2-(4-ethylbenzyl)-7-hydroxy-1-(propan-2-yl)-1,2,3,4-tetrahydro-8H-pyrido[1,2-a]pyrazin-8-one] | +++ (three plus signs (+++) is associated with a pIC50 of above about 7)
21 | Cc1cccc(C)c1CN1CCn2cc(O)c(=O)cc2C1C (stereo not drawn) [Example 121, 2-(2,6-dimethylbenzyl)-7-hydroxy-1-methyl-1,2,3,4-tetrahydro-8H-pyrido[1,2-a]pyrazin-8-one] | +++ (three plus signs (+++) is associated with a pIC50 of above about 7)
22 | CCc1ccc(CN2CCn3cc(O)c(=O)cc3C2C)cc1 (stereo not drawn) [Example 122, 2-(4-ethylbenzyl)-7-hydroxy-1-methyl-1,2,3,4-tetrahydro-8H-pyrido[1,2-a]pyrazin-8-one] | +++ (three plus signs (+++) is associated with a pIC50 of above about 7)
23 | O=c1cc2n(cc1O)CCN(Cc1cccc3cccnc13)C2c1ccc(F)cc1 (stereo not drawn) [Example 123, 1-(4-fluorophenyl)-7-hydroxy-2-(quinolin-8-ylmethyl)-1,2,3,4-tetrahydro-8H-pyrido[1,2-a]pyrazin-8-one] | +++ (three plus signs (+++) is associated with a pIC50 of above about 7)
24 | Cc1cccc(C)c1CN1CCn2cc(O)c(=O)cc2C1c1ccc(F)cc1 (stereo not drawn) [Example 124, 2-(2,6-dimethylbenzyl)-1-(4-fluorophenyl)-7-hydroxy-1,2,3,4-tetrahydro-8H-pyrido[1,2-a]pyrazin-8-one] | +++ (three plus signs (+++) is associated with a pIC50 of above about 7)
